The values that follow come from ChEMBL document CHEMBL5346930, “Discovery of novel N-benzylarylamide-dithiocarbamate based derivatives as dual inhibitors of tubulin polymerization and LSD1 that inhibit gastric cancers” (Eur J Med Chem, 2023).

The test system of one series is HGC-27. Briefly: Antiproliferative activity against human HGC-27 cells assessed as inhibition of cell growth incubated for 48 hrs by MTT assay. The format is functional, cell-based. Particulars: HGC-27, 48 h.
Another series deals with DU-145. Briefly: Antiproliferative activity against human DU-145 cells assessed as inhibition of cell growth incubated for 48 hrs by MTT assay. The format is functional, cell-based. The following applies: DU-145, 48 h. On the technique in general: Tetrazolium dyes change colour on reduction, which living cells bring about.
In another series the test system is A549. Briefly: Antiproliferative activity against human A549 cells assessed as inhibition of cell growth incubated for 48 hrs by MTT assay. The format is functional, cell-based. The following applies: A549, 48 h.
For another series, the system named is SMMC-7721. Briefly: Antiproliferative activity against human SMMC-7721 cells assessed as inhibition of cell growth incubated for 48 hrs by MTT assay. It is filed as functional, cell-based. The following applies: SMMC-7721, 48 h.
Series [1] concerns the target Lysine-specific histone demethylase 1A (Homo sapiens, UniProt O60341). Description: Inhibition of LSD1 in human SGC-7901 cells assessed as increase in H3K4me2 expression level at 0 to 30 nmol/L incubated for 48 hrs by Western blot analysis. The format is cell-based. The following applies: dose 0-30 nmol/L. On the technique in general: In western blotting, separated proteins are transferred to a membrane and probed.

The subject of series [2] is SGC-7901. Description: Induction of morphological changes in human SGC-7901 cells assessed as appearance of oblate and bright cells at 0 to 30 nmol/L incubated for 48 hrs by bright field microscopic analysis. It is filed as functional, cell-based. The following applies: dose 0-30 nmol/L.
The test system of series [3] is MGC-803. Briefly: Induction of morphological changes in human MGC-803 cells assessed as reduction in cell density at 0 to 24 nmol/L incubated for 48 hrs by bright field microscopic analysis. The format is functional, cell-based. The following applies: dose 0-24 nmol/L.
For series [4], the system named is SGC-7901. Briefly: Induction of morphological changes in human SGC-7901 cells assessed as reduction in cell density at 0 to 30 nmol/L incubated for 48 hrs by bright field microscopic analysis. The format is functional, cell-based. Particulars: dose 0-30 nmol/L.
Series [5] deals with SGC-7901. Description: Induction of morphological changes in human SGC-7901 cells assessed as increase in proportion of dead cells at 0 to 30 nmol/L incubated for 48 hrs by calcein-AM/PI staining based analysis. The format is functional, cell-based. The following applies: dose 0-30 nmol/L.
Series [6] concerns MGC-803. Briefly: Induction of apoptosis in human MGC-803 cells assessed as increase in total apoptotic cells incubated for 48 hrs by Annexin-FITC/PI staining based flow cytometry analysis. The format is functional, cell-based. Particulars: dose 0-24 nmol/L. A general note: Flow cytometry measures light scatter and fluorescence of single cells or particles in a stream.
Series [7] deals with SGC-7901. Briefly: Induction of apoptosis in human SGC-7901 cells assessed as increase in total apoptotic cells incubated for 48 hrs by Annexin-FITC/PI staining based flow cytometry analysis. It is filed as functional, cell-based. The following applies: dose 0-30 nmol/L.
Series [8] concerns SGC-7901. Briefly: Induction of apoptosis in human SGC-7901 cells assessed as increase in cleaved caspase-7 level at 0 to 30 nmol/L incubated for 48 hrs by Western blot analysis. The format is functional, cell-based. The following applies: dose 0-30 nmol/L.
The subject of series [9] is SGC-7901. Briefly: Inhibition of cell migration in human SGC-7901 cells assessed as reduction in number of cells crossing membrane at 4 nmol/L measured after 48 hrs by transwell assay. It is filed as functional, cell-based.
The subject of series [10] is MGC-803. Description: Antitumor activity against human MGC-803 cells xenografted in BALB/c nude mouse assessed as tumor growth inhibition at 25 mg/kg/day, ip administered every day for 21 days. It is filed as functional, organism-based. The following applies: time 21.0 day.
Series [11] in a line: Hepatotoxicity in BALB/c nude mouse xenografted with human MGC-803 cells assessed as effect on AST level at 25 mg/kg/day, ip administered every day for 21 days. It is filed as toxicity, organism-based. The following applies: in vivo, 504 h, time 21 day.

The source made the active and inactive calls. The rule behind the calls is not given here.

Consider `COc1ccc(CN(C(=O)CSC(=S)N2CCN(c3ccc(N)cc3)CC2)c2cc(OC)c(OC)c(OC)c2)cc1O`, for which the half-inhibitory concentration (IC50) came to 24.5 nM in the series on HGC-27, 49.9 nM in the series with DU-145, 254 nM in the series with A549 and 27 nM in the series on SMMC-7721. Besides, the inhibition entry (in [1]; in the series with SGC-7901 [9]) was “Active” in each case. Further, the outcome in the series on SGC-7901 [2], with MGC-803 [3], in the series with SGC-7901 [4], in the series on SGC-7901 [5], with SGC-7901 [8] and in the series with MGC-803 [10] was Active. Also, the Activity result with MGC-803 [6] is “Dose-Dependent Effect”; in the series with SGC-7901 [7], “Dose-Dependent Effect”; in [11], “Non-Toxic”.

One may read the IC50 as the concentration that gives 50% inhibition.
